Results from the kinase profiling compilation of Christmann-Franck et al. (2016).

What was measured:
Test in all cases: radiometric filter-binding kinase assay, Kinase HotSpot
Conditions in all cases: compound 0.5 µM; ATP 10 µM
[1] = target: ITK (human) (UniProt Q08881)
[2] = target: YES1 (human) (UniProt P07947)
[3] = target: MAP4K4 (human) (UniProt O95819)
[4] = target: SRC (human) (UniProt P12931)
[5] = target: PRKCB2 (human) (UniProt P05771)
[6] = target: ROCK1 (human) (UniProt Q13464)
[7] = target: PBK (human) (UniProt Q96KB5)
[8] = target: STK39 (human) (UniProt Q9UEW8)
[9] = target: MINK1 (human) (UniProt Q8N4C8)
[10] = target: WNK2 (human) (UniProt Q9Y3S1)
[11] = target: MUSK (human) (UniProt O15146)
[12] = target: MST1R (human) (UniProt Q04912)
[13] = target: RPS6KA4 KD2 (human) (UniProt O75676)
[14] = target: FER (human) (UniProt P16591)
[15] = target: PIM3 (human) (UniProt Q86V86)
[16] = target: DYRK3 (human) (UniProt O43781)
[17] = target: PRKD1 (human) (UniProt Q15139)
[18] = target: MAPKAPK2 (human) (UniProt P49137)
[19] = target: MAP2K1 (human) (UniProt Q02750)
[20] = target: CDK6 CCND3 (human) (UniProt P30281+Q00534)
[21] = target: MAP2K2 (human) (UniProt P36507)
[22] = target: EPHA3 (human) (UniProt P29320)
[23] = target: NEK11 (human) (UniProt Q8NG66)
[24] = target: CAMK2A (human) (UniProt Q9UQM7)
[25] = target: CSF1R (human) (UniProt P07333)
[26] = target: PTK2 (human) (UniProt Q05397)
[27] = target: IGF1R (human) (UniProt P08069)
[28] = target: ROCK2 (human) (UniProt O75116)
[29] = target: PAK1 (human) (UniProt Q13153)
[30] = target: MAP4K2 (human) (UniProt Q12851)
[31] = target: MAPK1 (human) (UniProt P28482)
[32] = target: TYK2 JH1 catalytic (human) (UniProt P29597)
[33] = target: TNK2 (human) (UniProt Q07912)
[34] = target: BMX (human) (UniProt P51813)
[35] = target: CDK2 CCNE1 (human) (UniProt P24941+P24864)
[36] = target: SLK (human) (UniProt Q9H2G2)
[37] = target: IRAK4 (human) (UniProt Q9NWZ3)
[38] = target: CAMK2G (human) (UniProt Q13555)
[39] = target: MATK (human) (UniProt P42679)
[40] = target: PKN1 (human) (UniProt Q16512)
[41] = target: GSG2 (human) (UniProt Q8TF76)
[42] = target: RPS6KA3 KD1 KD2 (human) (UniProt P51812)

Sequence of CDK6 CCND3 (human) (P30281 whole entry, looked up): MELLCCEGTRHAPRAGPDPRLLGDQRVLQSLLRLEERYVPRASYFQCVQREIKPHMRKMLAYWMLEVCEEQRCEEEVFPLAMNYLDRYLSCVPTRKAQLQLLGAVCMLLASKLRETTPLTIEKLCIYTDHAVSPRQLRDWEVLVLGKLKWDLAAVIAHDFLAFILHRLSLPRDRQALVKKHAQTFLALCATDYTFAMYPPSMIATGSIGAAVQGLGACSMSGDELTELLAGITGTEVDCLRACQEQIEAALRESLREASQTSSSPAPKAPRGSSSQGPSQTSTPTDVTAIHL
Sequence of CDK6 CCND3 (human) (Q00534 whole entry, looked up): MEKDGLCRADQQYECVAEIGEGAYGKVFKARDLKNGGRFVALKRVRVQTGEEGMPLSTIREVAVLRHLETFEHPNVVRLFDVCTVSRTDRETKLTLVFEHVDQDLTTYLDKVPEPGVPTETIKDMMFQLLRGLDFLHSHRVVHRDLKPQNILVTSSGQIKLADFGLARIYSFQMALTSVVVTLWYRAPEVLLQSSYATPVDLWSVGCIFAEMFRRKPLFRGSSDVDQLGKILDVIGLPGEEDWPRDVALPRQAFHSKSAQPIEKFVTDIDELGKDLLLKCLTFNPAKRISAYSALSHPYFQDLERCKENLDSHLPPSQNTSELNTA
Sequence of SLK (human) (Q9H2G2 whole entry, looked up): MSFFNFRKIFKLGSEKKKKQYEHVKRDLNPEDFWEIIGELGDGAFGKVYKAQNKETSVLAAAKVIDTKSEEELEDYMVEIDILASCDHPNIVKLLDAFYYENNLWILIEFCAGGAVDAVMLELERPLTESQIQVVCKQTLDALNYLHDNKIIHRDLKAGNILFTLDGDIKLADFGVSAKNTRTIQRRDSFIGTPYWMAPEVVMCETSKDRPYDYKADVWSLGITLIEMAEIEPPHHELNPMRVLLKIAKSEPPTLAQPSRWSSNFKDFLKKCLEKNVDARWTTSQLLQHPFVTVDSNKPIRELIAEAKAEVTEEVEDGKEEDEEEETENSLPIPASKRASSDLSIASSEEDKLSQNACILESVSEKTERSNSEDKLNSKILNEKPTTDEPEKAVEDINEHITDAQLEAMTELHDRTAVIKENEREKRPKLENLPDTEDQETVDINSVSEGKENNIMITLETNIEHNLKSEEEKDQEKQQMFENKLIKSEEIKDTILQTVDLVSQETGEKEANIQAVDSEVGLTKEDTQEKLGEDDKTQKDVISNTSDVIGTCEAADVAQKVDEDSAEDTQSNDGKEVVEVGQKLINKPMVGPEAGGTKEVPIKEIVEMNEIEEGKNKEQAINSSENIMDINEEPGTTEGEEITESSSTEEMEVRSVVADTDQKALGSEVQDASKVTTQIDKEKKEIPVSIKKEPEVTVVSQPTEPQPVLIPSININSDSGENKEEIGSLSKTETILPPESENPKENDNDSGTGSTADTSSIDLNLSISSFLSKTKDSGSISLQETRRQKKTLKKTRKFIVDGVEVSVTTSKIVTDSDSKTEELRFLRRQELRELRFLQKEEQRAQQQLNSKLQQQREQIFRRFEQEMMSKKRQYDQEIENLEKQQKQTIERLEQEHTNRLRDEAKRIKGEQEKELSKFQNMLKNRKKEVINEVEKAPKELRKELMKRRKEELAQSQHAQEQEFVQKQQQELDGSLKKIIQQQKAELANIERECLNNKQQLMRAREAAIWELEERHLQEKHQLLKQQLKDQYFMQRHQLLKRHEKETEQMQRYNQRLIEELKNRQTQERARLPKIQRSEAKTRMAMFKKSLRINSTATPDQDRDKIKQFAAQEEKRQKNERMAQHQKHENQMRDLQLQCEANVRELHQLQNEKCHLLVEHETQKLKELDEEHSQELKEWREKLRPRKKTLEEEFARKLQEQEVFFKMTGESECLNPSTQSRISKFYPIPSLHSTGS
Sequence of CAMK2A (human) (Q9UQM7 whole entry, looked up): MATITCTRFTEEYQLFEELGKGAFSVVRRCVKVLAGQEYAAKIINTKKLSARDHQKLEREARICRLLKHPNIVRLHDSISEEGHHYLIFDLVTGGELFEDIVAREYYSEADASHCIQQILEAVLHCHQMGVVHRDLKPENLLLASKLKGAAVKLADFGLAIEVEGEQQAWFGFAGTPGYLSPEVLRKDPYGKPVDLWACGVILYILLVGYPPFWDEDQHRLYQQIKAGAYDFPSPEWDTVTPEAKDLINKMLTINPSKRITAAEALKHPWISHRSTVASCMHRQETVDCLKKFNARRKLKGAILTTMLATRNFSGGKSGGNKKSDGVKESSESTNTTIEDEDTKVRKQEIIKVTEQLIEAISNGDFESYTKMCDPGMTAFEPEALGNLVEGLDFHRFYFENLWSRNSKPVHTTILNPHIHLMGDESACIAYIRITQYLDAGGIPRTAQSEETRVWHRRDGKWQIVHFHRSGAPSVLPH
Sequence of GSG2 (human) (Q8TF76 whole entry, looked up): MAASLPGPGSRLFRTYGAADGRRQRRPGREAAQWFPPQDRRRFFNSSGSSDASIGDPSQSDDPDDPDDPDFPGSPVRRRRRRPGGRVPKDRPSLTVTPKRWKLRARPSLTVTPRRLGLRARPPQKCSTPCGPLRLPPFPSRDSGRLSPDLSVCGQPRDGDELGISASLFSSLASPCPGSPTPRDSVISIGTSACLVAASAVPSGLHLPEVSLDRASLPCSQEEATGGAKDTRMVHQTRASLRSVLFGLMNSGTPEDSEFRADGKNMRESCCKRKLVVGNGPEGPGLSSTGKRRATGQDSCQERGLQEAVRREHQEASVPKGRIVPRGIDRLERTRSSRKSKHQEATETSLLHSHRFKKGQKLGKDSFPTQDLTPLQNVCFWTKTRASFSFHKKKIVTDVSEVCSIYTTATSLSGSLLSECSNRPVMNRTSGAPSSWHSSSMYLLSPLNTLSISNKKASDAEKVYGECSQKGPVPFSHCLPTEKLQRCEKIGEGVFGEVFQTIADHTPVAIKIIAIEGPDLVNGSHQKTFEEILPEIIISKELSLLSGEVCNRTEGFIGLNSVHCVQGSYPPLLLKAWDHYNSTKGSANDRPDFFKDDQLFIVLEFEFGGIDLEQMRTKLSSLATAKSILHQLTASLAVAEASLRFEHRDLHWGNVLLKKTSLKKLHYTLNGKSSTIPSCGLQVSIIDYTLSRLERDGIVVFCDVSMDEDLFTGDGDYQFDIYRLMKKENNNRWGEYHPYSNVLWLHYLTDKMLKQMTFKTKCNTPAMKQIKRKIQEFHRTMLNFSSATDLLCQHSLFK
Sequence of PKN1 (human) (Q16512 whole entry, looked up): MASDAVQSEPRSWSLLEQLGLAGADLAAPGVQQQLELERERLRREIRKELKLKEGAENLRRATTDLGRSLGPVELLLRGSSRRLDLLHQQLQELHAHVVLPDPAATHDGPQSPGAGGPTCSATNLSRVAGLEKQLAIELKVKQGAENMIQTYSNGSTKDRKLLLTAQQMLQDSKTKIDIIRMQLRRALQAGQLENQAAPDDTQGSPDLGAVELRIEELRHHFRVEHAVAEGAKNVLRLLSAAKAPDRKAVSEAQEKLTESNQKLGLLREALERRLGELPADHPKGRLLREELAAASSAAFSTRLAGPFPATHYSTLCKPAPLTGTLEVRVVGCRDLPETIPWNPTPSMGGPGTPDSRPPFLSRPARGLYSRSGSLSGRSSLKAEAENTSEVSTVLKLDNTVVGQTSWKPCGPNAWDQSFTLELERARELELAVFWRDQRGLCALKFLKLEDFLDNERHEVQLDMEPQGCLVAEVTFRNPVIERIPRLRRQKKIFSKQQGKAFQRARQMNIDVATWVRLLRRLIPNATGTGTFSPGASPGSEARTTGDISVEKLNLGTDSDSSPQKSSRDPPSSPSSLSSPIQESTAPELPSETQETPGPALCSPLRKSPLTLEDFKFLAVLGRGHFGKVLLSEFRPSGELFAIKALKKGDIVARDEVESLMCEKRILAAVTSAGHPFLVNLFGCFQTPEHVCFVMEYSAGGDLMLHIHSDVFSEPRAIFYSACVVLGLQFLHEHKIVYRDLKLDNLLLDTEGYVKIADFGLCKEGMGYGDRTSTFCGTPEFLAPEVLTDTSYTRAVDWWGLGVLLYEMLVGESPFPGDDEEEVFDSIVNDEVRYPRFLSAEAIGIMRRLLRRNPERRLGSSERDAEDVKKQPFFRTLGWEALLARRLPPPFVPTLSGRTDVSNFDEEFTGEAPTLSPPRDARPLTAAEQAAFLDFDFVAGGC
Sequence of ITK (human) (Q08881 whole entry, looked up): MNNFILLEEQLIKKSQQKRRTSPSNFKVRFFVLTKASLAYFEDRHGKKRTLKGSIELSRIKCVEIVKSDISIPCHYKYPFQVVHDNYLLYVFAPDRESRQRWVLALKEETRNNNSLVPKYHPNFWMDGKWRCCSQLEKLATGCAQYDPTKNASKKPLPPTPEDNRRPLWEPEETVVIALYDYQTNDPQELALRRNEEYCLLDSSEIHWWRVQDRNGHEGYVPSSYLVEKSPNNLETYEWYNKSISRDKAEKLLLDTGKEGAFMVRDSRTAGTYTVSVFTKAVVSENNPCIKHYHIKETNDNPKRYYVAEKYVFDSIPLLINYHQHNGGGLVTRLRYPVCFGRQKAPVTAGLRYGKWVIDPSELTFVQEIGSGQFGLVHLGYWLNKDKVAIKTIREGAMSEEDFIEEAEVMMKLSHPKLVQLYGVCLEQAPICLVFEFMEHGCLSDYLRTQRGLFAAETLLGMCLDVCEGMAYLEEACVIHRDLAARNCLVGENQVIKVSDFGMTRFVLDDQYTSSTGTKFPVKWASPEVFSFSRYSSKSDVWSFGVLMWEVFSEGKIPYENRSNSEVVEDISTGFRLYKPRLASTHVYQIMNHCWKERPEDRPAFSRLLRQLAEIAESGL
Sequence of MAPK1 (human) (P28482 whole entry, looked up): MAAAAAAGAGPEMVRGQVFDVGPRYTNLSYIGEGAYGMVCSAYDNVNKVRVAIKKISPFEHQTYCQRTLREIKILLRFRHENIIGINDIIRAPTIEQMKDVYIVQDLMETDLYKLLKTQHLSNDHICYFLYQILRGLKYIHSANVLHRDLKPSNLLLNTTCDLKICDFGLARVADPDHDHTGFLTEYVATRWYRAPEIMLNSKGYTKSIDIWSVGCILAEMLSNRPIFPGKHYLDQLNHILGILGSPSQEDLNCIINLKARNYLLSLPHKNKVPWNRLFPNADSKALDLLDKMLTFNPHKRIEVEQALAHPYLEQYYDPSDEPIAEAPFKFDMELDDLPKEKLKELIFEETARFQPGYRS

## CC(C)(C)c1nc2c3ccc(F)cc3c3c(=O)[nH]ccc3c2[nH]1
[1]
  residual activity: 86%
[2]
  residual activity: 76.1%
[3]
  residual activity: 38.4%
[4]
  residual activity: 93.4%
[5]
  residual activity: 90.6%
[6]
  residual activity: 74.9%
[7]
  residual activity: 39.1%
[8]
  residual activity: 93.8%
[9]
  residual activity: 52%
[10]
  residual activity: 105%
[11]
  residual activity: 81.7%
[12]
  residual activity: 103%
[13]
  residual activity: 44.7%
[14]
  residual activity: 34%
[15]
  residual activity: 33.9%
[16]
  residual activity: 105%
[17]
  residual activity: 8.19%
[18]
  residual activity: 99.6%
[19]
  residual activity: 94.9%
[20]
  residual activity: 87.8%
[21]
  residual activity: 82.1%
[22]
  residual activity: 89.2%
[23]
  residual activity: 92.4%
[24]
  residual activity: 35.1%
[25]
  residual activity: 93%
[26]
  residual activity: 35.3%
[27]
  residual activity: 91.3%
[28]
  residual activity: 70.7%
[29]
  residual activity: 82.1%
[30]
  residual activity: 66.2%
[31]
  residual activity: 96.1%
[32]
  residual activity: 1.48%
[33]
  residual activity: 4.36%
[34]
  residual activity: 71.9%
[35]
  residual activity: 87.5%
[36]
  residual activity: 91.4%
[37]
  residual activity: 96.3%
[38]
  residual activity: 72.8%
[39]
  residual activity: 102%
[40]
  residual activity: 28.3%
[41]
  residual activity: 67.2%

## O=C(Nc1ccc(Cl)cc1)c1ccccc1NCc1ccncc1
[1]
  residual activity: 94.1%
[2]
  residual activity: 95.3%
[3]
  residual activity: 88.7%
[4]
  residual activity: 88.8%
[5]
  residual activity: 93.3%
[6]
  residual activity: 98.4%
[7]
  residual activity: 88.5%
[8]
  residual activity: 94.7%
[9]
  residual activity: 96.9%
[10]
  residual activity: 101%
[11]
  residual activity: 95.9%
[12]
  residual activity: 90.5%
[13]
  residual activity: 90.2%
[14]
  residual activity: 80.4%
[15]
  residual activity: 93%
[16]
  residual activity: 104%
[42]
  residual activity: 91.4%
[17]
  residual activity: 93.2%
[18]
  residual activity: 97.6%
[19]
  residual activity: 96.8%
[20]
  residual activity: 86.5%
[21]
  residual activity: 102%
[22]
  residual activity: 92.1%
[23]
  residual activity: 104%
[24]
  residual activity: 99.9%
[25]
  residual activity: 18.4%
[26]
  residual activity: 95.7%
[28]
  residual activity: 93.8%
[29]
  residual activity: 94.9%
[30]
  residual activity: 97.3%
[31]
  residual activity: 94.7%
[32]
  residual activity: 92.1%
[33]
  residual activity: 99.3%
[34]
  residual activity: 90.5%
[35]
  residual activity: 94.3%
[36]
  residual activity: 86.6%
[37]
  residual activity: 104%
[38]
  residual activity: 89.2%
[39]
  residual activity: 99.3%
[40]
  residual activity: 95.2%
[41]
  residual activity: 95.5%

## Nc1nc(Nc2ccc(S(N)(=O)=O)cc2)nn1C(=O)c1c(F)cccc1F
[1]
  residual activity: 105%
[2]
  residual activity: 50.6%
[3]
  residual activity: 83.8%
[4]
  residual activity: 76.3%
[5]
  residual activity: 90.5%
[6]
  residual activity: 42.6%
[7]
  residual activity: 92.1%
[8]
  residual activity: 89.5%
[9]
  residual activity: 98.1%
[10]
  residual activity: 116%
[11]
  residual activity: 83.1%
[12]
  residual activity: 115%
[13]
  residual activity: 90.2%
[14]
  residual activity: 82%
[15]
  residual activity: 102%
[16]
  residual activity: 101%
[42]
  residual activity: 38.6%
[17]
  residual activity: 66.5%
[18]
  residual activity: 95.8%
[19]
  residual activity: 93.9%
[20]
  residual activity: 36.3%
[21]
  residual activity: 85.6%
[22]
  residual activity: 107%
[23]
  residual activity: 95.8%
[24]
  residual activity: 104%
[25]
  residual activity: 49.2%
[26]
  residual activity: 95.5%
[27]
  residual activity: 86.9%
[28]
  residual activity: 18.6%
[29]
  residual activity: 89.5%
[30]
  residual activity: 58.4%
[31]
  residual activity: 98.4%
[32]
  residual activity: 0.878%
[33]
  residual activity: 68%
[35]
  residual activity: 7.15%
[36]
  residual activity: 19.1%
[37]
  residual activity: 151%
[38]
  residual activity: 104%
[39]
  residual activity: 104%
[40]
  residual activity: 89.7%
[41]
  residual activity: 107%
